Experimental data taken from US7087642B2 (priority 1999, dated 2006).
Where two headings read alike, the source gives them in different places.

Assays:
IMPDH human type II = IMPDH human type II (Homo sapiens, UniProt P12268); experiment: biochemical
human PBMC T cells = experiment: cells; type: cell-based; settings: Homo sapiens, 72 h, read-out: T-cells (IC50)
human PBMC B cells = experiment: cells; type: cell-based; settings: Homo sapiens, 72 h, read-out: B-cells (IC50)

SMILES	Ki (IMPDH human type II; read-out: Ki) [nM]	IC50 (human PBMC T cells) [nM]	IC50 (human PBMC B cells) [nM]	Ki (IMPDH human type II) [nM]
CCC(CN(CC)CC)OC(=O)NCc1cccc(NC(=O)Nc2ccc(-c3cnco3)c(OC)c2)c1 (stereo not drawn) [Compound 87]	< 10	< 100	< 100	
COc1cc(NC(=O)Nc2cccc(CNC(=O)O[C@@H](CO)CSC)c2)ccc1-c1cnco1 [Compound 88]	< 10	100 to 1000	100 to 1000	
COc1cc(NC(=O)Nc2cccc(CNC(=O)OC(CCC#N)C(F)(F)F)c2)ccc1-c1cnco1 (stereo not drawn) [Compound 90]	< 10	100 to 1000	100 to 1000	
CCC(C[N+]1([O-])CCS(=O)(=O)CC1)OC(=O)NCc1cccc(NC(=O)Nc2ccc(-c3cnco3)c(OC)c2)c1 (stereo not drawn) [Compound 91]	< 10	> 1000	> 1000	
CC[C@H](CCN(CC)CC)OC(=O)NCc1cccc(NC(=O)Nc2ccc(-c3cnco3)c(OC)c2)c1 [Compound 92]	< 10	100 to 1000	100 to 1000	
COc1cc(NC(=O)Nc2cccc(CNC(=O)OCCCOP(=O)(O)O)c2)ccc1-c1cnco1 [Compound 97]	10 to 50	< 100	< 100	
COc1cc(NC(=O)Nc2cccc(CNC(=O)O[C@H](CN3CCCC3)c3ccccc3)c2)ccc1-c1cnco1 [Compound 98]	10 to 50	100 to 1000	100 to 1000	
COc1cc(NC(=O)Nc2cccc(CNC(=O)O[C@H](CN3CCCCC3)c3ccccc3)c2)ccc1-c1cnco1 [Compound 99]	10 to 50	100 to 1000	100 to 1000	
CCC(OC(=O)NCc1cccc(NC(=O)Nc2ccc(-c3cnco3)c(OC)c2)c1)C(C)(C)C#N (stereo not drawn) [Compound 100]	10 to 50	100 to 1000	100 to 1000	
CC[C@@H](CCC#N)OC(=O)NCc1cccc(NC(=O)Nc2ccc(-c3cnco3)c(OC)c2)c1 [Compound 101]	< 10	< 100	< 100	
CC[C@@H](CCN(CC)CC)OC(=O)NCc1cccc(NC(=O)Nc2ccc(-c3cnco3)c(OC)c2)c1 [Compound 102]	< 10	100 to 1000	100 to 1000	
CCC(OC(=O)NCc1cccc(NC(=O)Nc2ccc(-c3cnco3)c(OC)c2)c1)C1(C#N)CC1 (stereo not drawn) [Compound 103]	> 50	100 to 1000	< 100	
COc1cc(NC(=O)Nc2cccc(CNC(=O)OC(CC#N)C3CC3)c2)ccc1-c1cnco1 (stereo not drawn) [Compound 104]	10 to 50	< 100	< 100	
CCCN(CCC(OC(=O)NCc1cccc(NC(=O)Nc2ccc(-c3cnco3)c(OC)c2)c1)c1ccccc1)C(C)C (stereo not drawn) [Compound 107]	> 50	100 to 1000	100 to 1000	
CCCN(C[C@@H](OC(=O)NCc1cccc(NC(=O)Nc2ccc(-c3cnco3)c(OC)c2)c1)c1ccccc1)C(C)C [Compound 108]	> 50	100 to 1000	< 100	
COc1cc(NC(=O)Nc2cccc(CNC(=O)O[C@H](CN(CC(C)C)C(C)C)c3ccccc3)c2)ccc1-c1cnco1 [Compound 109]	> 50	100 to 1000	100 to 1000	
COc1cc(NC(=O)Nc2cccc(CNC(=O)O[C@H](CN(CC3CC3)C(C)C)c3ccccc3)c2)ccc1-c1cnco1 [Compound 110]	> 50	100 to 1000	< 100	
CCCN(CC(C)C)CC(OC(=O)NCc1cccc(NC(=O)Nc2ccc(-c3cnco3)c(OC)c2)c1)c1ccccc1 (stereo not drawn) [Compound 112]	> 50	> 1000	> 1000	
CCCN(CCC)CC(OC(=O)NCc1cccc(NC(=O)Nc2ccc(-c3cnco3)c(OC)c2)c1)c1ccccc1 (stereo not drawn) [Compound 113]	> 50	> 1000	> 1000	
CCCN(CC1CC1)CC(OC(=O)NCc1cccc(NC(=O)Nc2ccc(-c3cnco3)c(OC)c2)c1)c1ccccc1 (stereo not drawn) [Compound 114]	> 50	> 1000	> 1000	
CCN(CC(C)C)CC(OC(=O)NCc1cccc(NC(=O)Nc2ccc(-c3cnco3)c(OC)c2)c1)c1ccccc1 (stereo not drawn) [Compound 115]	> 50	> 1000	> 1000	

SMILES	Ki (IMPDH human type II; read-out: Ki) [nM]	IC50 (human PBMC T cells) [nM]	IC50 (human PBMC B cells) [nM]	Ki (IMPDH human type II) [nM]
COc1cc(NC(=O)Nc2cccc(CNC(=O)OC(CN(CC(C)C)CC(C)C)c3ccccc3)c2)ccc1-c1cnco1 (stereo not drawn) [Compound 116]	> 50	> 1000	> 1000	
COc1cc(NC(=O)Nc2cccc(CNC(=O)OC(CN(CC(C)C)CC3CC3)c3ccccc3)c2)ccc1-c1cnco1 (stereo not drawn) [Compound 117]	> 50	> 1000	> 1000	
CCCN(C)CCC(OC(=O)NCc1cccc(NC(=O)Nc2ccc(-c3cnco3)c(OC)c2)c1)c1ccccc1 (stereo not drawn) [Compound 118]	> 50	100 to 1000	100 to 1000	
CCCN(CC)CCC(OC(=O)NCc1cccc(NC(=O)Nc2ccc(-c3cnco3)c(OC)c2)c1)c1ccccc1 (stereo not drawn) [Compound 119]	> 50	100 to 1000	100 to 1000	
CCCN(CCC(OC(=O)NCc1cccc(NC(=O)Nc2ccc(-c3cnco3)c(OC)c2)c1)c1ccccc1)CC(C)C (stereo not drawn) [Compound 120]	> 50	> 1000	> 1000	
CCCN(CCC(OC(=O)NCc1cccc(NC(=O)Nc2ccc(-c3cnco3)c(OC)c2)c1)c1ccccc1)CC1CC1 (stereo not drawn) [Compound 122]	> 50	> 1000	> 1000	
CCCN(CCC)CCC(OC(=O)NCc1cccc(NC(=O)Nc2ccc(-c3cnco3)c(OC)c2)c1)c1ccccc1 (stereo not drawn) [Compound 123]	> 50	> 1000	> 1000	
CCN(CCC(OC(=O)NCc1cccc(NC(=O)Nc2ccc(-c3cnco3)c(OC)c2)c1)c1ccccc1)CC(C)C (stereo not drawn) [Compound 125]	> 50	100 to 1000	100 to 1000	
COc1cc(NC(=O)Nc2cccc(CNC(=O)OC(CCN(CC(C)C)CC(C)C)c3ccccc3)c2)ccc1-c1cnco1 (stereo not drawn) [Compound 126]	> 50	> 1000	> 1000	
COc1cc(NC(=O)Nc2cccc(CNC(=O)OC(CCN(CC(C)C)CC3CC3)c3ccccc3)c2)ccc1-c1cnco1 (stereo not drawn) [Compound 127]	> 50	> 1000	> 1000	
COc1cc(NC(=O)Nc2cccc(CNC(=O)OC(CCN(C)C(C)C)c3ccccc3)c2)ccc1-c1cnco1 (stereo not drawn) [Compound 128]	> 50	100 to 1000	100 to 1000	
CCN(CCC(OC(=O)NCc1cccc(NC(=O)Nc2ccc(-c3cnco3)c(OC)c2)c1)c1ccccc1)C(C)C (stereo not drawn) [Compound 129]	> 50	100 to 1000	100 to 1000	
COc1cc(NC(=O)Nc2cccc(CNC(=O)OC(CCN(CC(C)C)C(C)C)c3ccccc3)c2)ccc1-c1cnco1 (stereo not drawn) [Compound 130]	> 50	100 to 1000	> 1000	
COc1cc(NC(=O)Nc2cccc(CNC(=O)OC(CCN(CC3CC3)C(C)C)c3ccccc3)c2)ccc1-c1cnco1 (stereo not drawn) [Compound 131]	> 50	100 to 1000	100 to 1000	
CCN(CC)CC(OC(=O)Nc1ccc(NC(=O)Nc2ccc(-c3cnco3)c(OC)c2)cc1)C(C)(C)C (stereo not drawn) [Compound 132]	> 50	100 to 1000	100 to 1000	
CCN(CC(OC(=O)NCc1cccc(NC(=O)Nc2ccc(-c3cnco3)c(OC)c2)c1)C1CCCCC1)C(C)C (stereo not drawn) [Compound 158]	10 to 50	> 1000	100 to 1000	
CC[C@H](CCC#N)OC(=O)N[C@@H](C)c1cccc(NC(=O)Nc2ccc(C#N)c(OC)c2)c1 [Compound 162]	10 to 50	100 to 1000	100 to 1000	
CCC(CC#N)OC(=O)NC(C)c1cccc(NC(=O)Nc2ccc(-c3cnco3)c(OC)c2)c1 (stereo not drawn) [Compound 163]	10 to 50	< 100	< 100	
CCN(CC)C[C@@H](OC(=O)NC(C)c1cccc(NC(=O)Nc2ccc(-c3cnco3)c(OC)c2)c1)c1ccccc1 (stereo partly drawn) [Compound 166]	> 50	100 to 1000	100 to 1000	
CC[C@H](CC#N)OC(=O)N[C@@H](C)c1cccc(NC(=O)Nc2ccc(C#N)c(OC)c2)c1 [Compound 169]		< 100	< 100	< 10
COc1cc(NC(=O)Nc2cccc([C@H](C)NC(=O)OCCC#N)c2)ccc1C#N [Compound 170]	< 10	100 to 1000	100 to 1000	
